Assays:
[1] = molecular target: GDP-bound HRAS wild-type protein (Homo sapiens, UniProt P01112); assay: Binding to HRAS by surface plasmon resonance (SPR), Single Cycle Kinetics; conditions: KD ratio HRAS/KRAS, SPR
[2] = molecular target: GDP-bound NRAS wild-type protein (Homo sapiens, UniProt P01111); assay: Binding to NRAS by surface plasmon resonance (SPR), Single Cycle Kinetics; conditions: KD ratio NRAS/KRAS, SPR
Sequence of GDP-bound NRAS wild-type protein (P01111 whole entry): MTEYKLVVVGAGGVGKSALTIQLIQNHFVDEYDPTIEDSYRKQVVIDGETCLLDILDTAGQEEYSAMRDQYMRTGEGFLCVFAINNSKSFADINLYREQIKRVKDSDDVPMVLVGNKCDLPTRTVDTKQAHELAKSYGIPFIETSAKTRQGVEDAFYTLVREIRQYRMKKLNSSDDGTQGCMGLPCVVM

Sequence of GDP-bound HRAS wild-type protein (P01112 whole entry): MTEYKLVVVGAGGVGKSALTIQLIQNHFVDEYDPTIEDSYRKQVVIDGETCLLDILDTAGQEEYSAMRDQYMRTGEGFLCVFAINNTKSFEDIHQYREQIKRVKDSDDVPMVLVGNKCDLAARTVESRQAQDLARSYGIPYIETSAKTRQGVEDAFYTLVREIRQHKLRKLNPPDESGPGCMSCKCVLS

| Compound | HRAS/KRAS (ratio of KD value with respect to GDP-bound HRAS wild-type protein to KD value with respect to KRAS) [1] | NRAS/KRAS (ratio of KD value with respect to GDP-bound NRAS wild-type protein to KD value with respect to KRAS) [2] |
| --- | --- | --- |
| CC[C@H](C)[C@@H]1NC(=O)[C@H](CC(C)C)N(C)C(=O)C[C@@H](C(=O)N2CCOCC2)N(C)C(=O)[C@H](C2CCCC2)N(C)C(=O)C2(CCCC2)NC(=O)[C@@H]2CC(=O)CN2C(=O)[C@H](CCc2cc(F)c(C(F)(F)F)c(F)c2)NC(=O)CN(C)C(=O)[C@H](Cc2ccc(C(F)(F)F)cc2)N2CCCC[C@@H](C2=O)N(C)C(=O)CN(C)C1=O [PP0555] | B (a compound having 3 or more and less than 10 is denoted as B) | B (a compound having 3 or more and less than 10 is denoted as B) |
| CC[C@H](C)[C@@H]1NC(=O)[C@H](CC(C)C)N(C)C(=O)C[C@@H](C(=O)N2CCOCC2)N(C)C(=O)[C@H](C2CCCC2)N(C)C(=O)C2(CCCC2)NC(=O)[C@@H]2C[C@H](O)CN2C(=O)[C@H](CCc2cc(F)c(C(F)(F)F)c(F)c2)NC(=O)CN(C)C(=O)[C@H](Cc2ccc(C(F)(F)F)cc2)N2CCCC[C@@H](C2=O)N(C)C(=O)CN(C)C1=O [PP0556] | B (a compound having 3 or more and less than 10 is denoted as B) | C (A compound having a KD ratio of 0.1 or more and less than 3 is denoted as C) |
| CC[C@H](C)[C@@H]1NC(=O)[C@H](CC(C)C)N(C)C(=O)C[C@@H](C(=O)N2CCOCC2)N(C)C(=O)[C@H](C2CCCC2)N(C)C(=O)C2(CCCC2)NC(=O)[C@@H]2C[C@H](OC)CN2C(=O)[C@H](CCc2cc(F)c(C(F)(F)F)c(F)c2)NC(=O)CN(C)C(=O)[C@H](Cc2ccc(C(F)(F)F)cc2)N2CCCC[C@@H](C2=O)N(C)C(=O)CN(C)C1=O [PP0557] | B (a compound having 3 or more and less than 10 is denoted as B) | B (a compound having 3 or more and less than 10 is denoted as B) |
| CC[C@H](C)[C@@H]1NC(=O)[C@H](CC(C)C)N(C)C(=O)C[C@@H](C(=O)N2CCOCC2)N(C)C(=O)[C@H](C2CCCC2)N(C)C(=O)C2(CCCC2)NC(=O)[C@@H]2[C@@H](O)CCN2C(=O)[C@H](CCc2cc(F)c(C(F)(F)F)c(F)c2)NC(=O)CN(C)C(=O)[C@H](Cc2ccc(C(F)(F)F)cc2)N2CCCC[C@@H](C2=O)N(C)C(=O)CN(C)C1=O [PP0558] | B (a compound having 3 or more and less than 10 is denoted as B) | B (a compound having 3 or more and less than 10 is denoted as B) |
| CC[C@H](C)[C@@H]1NC(=O)[C@H](CC(C)C)N(C)C(=O)C[C@@H](C(=O)N2CCOCC2)N(C)C(=O)[C@H](C2CCCC2)N(C)C(=O)C2(CC2)NC(=O)[C@@H]2CCCN2C(=O)[C@H](CCc2cc(F)c(C(F)(F)F)c(F)c2)NC(=O)CN(C)C(=O)[C@H](Cc2ccc(C(F)(F)F)cc2)N2CCCC[C@@H](C2=O)N(C)C(=O)CN(C)C1=O [PP0559] | B (a compound having 3 or more and less than 10 is denoted as B) | B (a compound having 3 or more and less than 10 is denoted as B) |
| CC[C@H](C)[C@@H]1NC(=O)[C@H](CC(C)C)N(C)C(=O)C[C@@H](C(=O)N2CCOCC2)N(C)C(=O)[C@H](C2CCCC2)N(C)C(=O)C2(CCC2)NC(=O)[C@@H]2CCCN2C(=O)[C@H](CCc2cc(F)c(C(F)(F)F)c(F)c2)NC(=O)CN(C)C(=O)[C@H](Cc2ccc(C(F)(F)F)cc2)N2CCCC[C@@H](C2=O)N(C)C(=O)CN(C)C1=O [PP0560] | B (a compound having 3 or more and less than 10 is denoted as B) | B (a compound having 3 or more and less than 10 is denoted as B) |
| CC[C@H](C)[C@@H]1NC(=O)[C@H](CC(C)C)N(C)C(=O)C[C@@H](C(=O)N2CCOCC2)N(C)C(=O)[C@H](C2CCCC2)N(C)C(=O)C2(CCCCC2)NC(=O)[C@@H]2CCCN2C(=O)[C@H](CCc2cc(F)c(C(F)(F)F)c(F)c2)NC(=O)CN(C)C(=O)[C@H](Cc2ccc(C(F)(F)F)cc2)N2CCCC[C@@H](C2=O)N(C)C(=O)CN(C)C1=O [PP0561] | B (a compound having 3 or more and less than 10 is denoted as B) | B (a compound having 3 or more and less than 10 is denoted as B) |
| CC[C@H](C)[C@@H]1NC(=O)[C@H](CC(C)C)N(C)C(=O)C[C@@H](C(=O)N2CCOCC2)N(C)C(=O)[C@H](C2CCCC2)N(C)C(=O)C2(CC(F)(F)C2)NC(=O)[C@@H]2CCCN2C(=O)[C@H](CCc2cc(F)c(C(F)(F)F)c(F)c2)NC(=O)CN(C)C(=O)[C@H](Cc2ccc(C(F)(F)F)cc2)N2CCCC[C@@H](C2=O)N(C)C(=O)CN(C)C1=O [PP0562] | B (a compound having 3 or more and less than 10 is denoted as B) | B (a compound having 3 or more and less than 10 is denoted as B) |
| CC[C@H](C)[C@@H]1NC(=O)[C@H](CC(C)C)N(C)C(=O)C[C@@H](C(=O)N2CCOCC2)N(C)C(=O)[C@H](C2CCCC2)N(C)C(=O)C2(COC2)NC(=O)[C@@H]2CCCN2C(=O)[C@H](CCc2cc(F)c(C(F)(F)F)c(F)c2)NC(=O)CN(C)C(=O)[C@H](Cc2ccc(C(F)(F)F)cc2)N2CCCC[C@@H](C2=O)N(C)C(=O)CN(C)C1=O [PP0563] | B (a compound having 3 or more and less than 10 is denoted as B) | B (a compound having 3 or more and less than 10 is denoted as B) |
| CC[C@H](C)[C@@H]1NC(=O)[C@H](CC(C)C)N(C)C(=O)C[C@@H](C(=O)N2CCOCC2)N(C)C(=O)[C@H](C2CCCC2)N(C)C(=O)C2(CCOCC2)NC(=O)[C@@H]2CCCN2C(=O)[C@H](CCc2cc(F)c(C(F)(F)F)c(F)c2)NC(=O)CN(C)C(=O)[C@H](Cc2ccc(C(F)(F)F)cc2)N2CCCC[C@@H](C2=O)N(C)C(=O)CN(C)C1=O [PP0564] | B (a compound having 3 or more and less than 10 is denoted as B) | B (a compound having 3 or more and less than 10 is denoted as B) |
| CC[C@H](C)[C@@H]1NC(=O)[C@H](CC(C)C)N(C)C(=O)C[C@@H](C(=O)N2CCOCC2)N(C)C(=O)[C@H](C2CCCC2)N(C)C(=O)C(C)(C)NC(=O)[C@@H]2CCCN2C(=O)[C@H](CCc2cc(F)c(C(F)(F)F)c(F)c2)NC(=O)CN(C)C(=O)[C@H](Cc2ccc(C(F)(F)F)cc2)N2CCCC[C@@H](C2=O)N(C)C(=O)CN(C)C1=O [PP0565] | B (a compound having 3 or more and less than 10 is denoted as B) | C (A compound having a KD ratio of 0.1 or more and less than 3 is denoted as C) |
| CC[C@H](C)[C@@H]1NC(=O)[C@H](CC(C)C)N(C)C(=O)C[C@@H](C(=O)N2CCOCC2)N(C)C(=O)[C@H](C2CCC2)N(C)C(=O)C2(CCCC2)NC(=O)[C@@H]2CCCN2C(=O)[C@H](CCc2cc(F)c(C(F)(F)F)c(F)c2)NC(=O)CN(C)C(=O)[C@H](Cc2ccc(C(F)(F)F)cc2)N2CCCC[C@@H](C2=O)N(C)C(=O)CN(C)C1=O [PP0566] | B (a compound having 3 or more and less than 10 is denoted as B) | B (a compound having 3 or more and less than 10 is denoted as B) |
| CC[C@H](C)[C@@H]1NC(=O)[C@H](CC(C)C)N(C)C(=O)C[C@@H](C(=O)N2CCOCC2)N(C)C(=O)[C@H](C2CCCCC2)N(C)C(=O)C2(CCCC2)NC(=O)[C@@H]2CCCN2C(=O)[C@H](CCc2cc(F)c(C(F)(F)F)c(F)c2)NC(=O)CN(C)C(=O)[C@H](Cc2ccc(C(F)(F)F)cc2)N2CCCC[C@@H](C2=O)N(C)C(=O)CN(C)C1=O [PP0567] | B (a compound having 3 or more and less than 10 is denoted as B) | B (a compound having 3 or more and less than 10 is denoted as B) |
| CC[C@H](C)[C@@H]1NC(=O)[C@H](CC(C)C)N(C)C(=O)C[C@@H](C(=O)N2CCOCC2)N(C)C(=O)[C@H](CC(F)(F)F)N(C)C(=O)C2(CCCC2)NC(=O)[C@@H]2CCCN2C(=O)[C@H](CCc2cc(F)c(C(F)(F)F)c(F)c2)NC(=O)CN(C)C(=O)[C@H](Cc2ccc(C(F)(F)F)cc2)N2CCCC[C@@H](C2=O)N(C)C(=O)CN(C)C1=O [PP0568] | B (a compound having 3 or more and less than 10 is denoted as B) | B (a compound having 3 or more and less than 10 is denoted as B) |
| CC[C@H](C)[C@@H]1NC(=O)[C@H](CC(C)C)N(C)C(=O)C[C@@H](C(=O)N(C)C)N(C)C(=O)[C@H](C2CCCC2)N(C)C(=O)C2(CCCC2)NC(=O)[C@@H]2CCCN2C(=O)[C@H](CCc2cc(F)c(C(F)(F)F)c(F)c2)NC(=O)CN(C)C(=O)[C@H](Cc2ccc(C(F)(F)F)cc2)N2CCCC[C@@H](C2=O)N(C)C(=O)CN(C)C1=O [PP0569] | B (a compound having 3 or more and less than 10 is denoted as B) | C (A compound having a KD ratio of 0.1 or more and less than 3 is denoted as C) |
| CC[C@H](C)[C@@H]1NC(=O)[C@H](CC(C)C)N(C)C(=O)C[C@@H](C(=O)N2CCC2)N(C)C(=O)[C@H](C2CCCC2)N(C)C(=O)C2(CCCC2)NC(=O)[C@@H]2CCCN2C(=O)[C@H](CCc2cc(F)c(C(F)(F)F)c(F)c2)NC(=O)CN(C)C(=O)[C@H](Cc2ccc(C(F)(F)F)cc2)N2CCCC[C@@H](C2=O)N(C)C(=O)CN(C)C1=O [PP0570] | B (a compound having 3 or more and less than 10 is denoted as B) | B (a compound having 3 or more and less than 10 is denoted as B) |

From patent publication US20250230193A1, “CYCLIC COMPOUND HAVING SELECTIVE KRAS INHIBITORY EFFECT ON HRAS AND NRAS” (CHUGAI SEIYAKU KABUSHIKI KAISHA, priority 2022, published 2025)
